According to paper PMC9387325, “New quinoline and isatin derivatives as apoptotic VEGFR-2 inhibitors: design, synthesis, anti-proliferative activity, docking, ADMET, toxicity, and MD simulation studies” (Journal of Enzyme Inhibition and Medicinal Chemistry, 2022):

Key:
[1] = biological target: T1, VEGFR-2 (Homo sapiens, UniProt P35968); assay: In vitro VEGFR-2 kinase assay (VEGFR-2 ELISA kit); assay type: biochemical; conditions: for HillSlope (best-fit value), VEGFR-2 inhibition / LogIC50 (best-fit value), VEGFR-2 inhibition: dose-response fit, supplement; for IC50: mean of three replicates, read-out: VEGFR-2 inhibitory activity IC50
T1 construct: purchased
T1 sequence (P35968 20-1356): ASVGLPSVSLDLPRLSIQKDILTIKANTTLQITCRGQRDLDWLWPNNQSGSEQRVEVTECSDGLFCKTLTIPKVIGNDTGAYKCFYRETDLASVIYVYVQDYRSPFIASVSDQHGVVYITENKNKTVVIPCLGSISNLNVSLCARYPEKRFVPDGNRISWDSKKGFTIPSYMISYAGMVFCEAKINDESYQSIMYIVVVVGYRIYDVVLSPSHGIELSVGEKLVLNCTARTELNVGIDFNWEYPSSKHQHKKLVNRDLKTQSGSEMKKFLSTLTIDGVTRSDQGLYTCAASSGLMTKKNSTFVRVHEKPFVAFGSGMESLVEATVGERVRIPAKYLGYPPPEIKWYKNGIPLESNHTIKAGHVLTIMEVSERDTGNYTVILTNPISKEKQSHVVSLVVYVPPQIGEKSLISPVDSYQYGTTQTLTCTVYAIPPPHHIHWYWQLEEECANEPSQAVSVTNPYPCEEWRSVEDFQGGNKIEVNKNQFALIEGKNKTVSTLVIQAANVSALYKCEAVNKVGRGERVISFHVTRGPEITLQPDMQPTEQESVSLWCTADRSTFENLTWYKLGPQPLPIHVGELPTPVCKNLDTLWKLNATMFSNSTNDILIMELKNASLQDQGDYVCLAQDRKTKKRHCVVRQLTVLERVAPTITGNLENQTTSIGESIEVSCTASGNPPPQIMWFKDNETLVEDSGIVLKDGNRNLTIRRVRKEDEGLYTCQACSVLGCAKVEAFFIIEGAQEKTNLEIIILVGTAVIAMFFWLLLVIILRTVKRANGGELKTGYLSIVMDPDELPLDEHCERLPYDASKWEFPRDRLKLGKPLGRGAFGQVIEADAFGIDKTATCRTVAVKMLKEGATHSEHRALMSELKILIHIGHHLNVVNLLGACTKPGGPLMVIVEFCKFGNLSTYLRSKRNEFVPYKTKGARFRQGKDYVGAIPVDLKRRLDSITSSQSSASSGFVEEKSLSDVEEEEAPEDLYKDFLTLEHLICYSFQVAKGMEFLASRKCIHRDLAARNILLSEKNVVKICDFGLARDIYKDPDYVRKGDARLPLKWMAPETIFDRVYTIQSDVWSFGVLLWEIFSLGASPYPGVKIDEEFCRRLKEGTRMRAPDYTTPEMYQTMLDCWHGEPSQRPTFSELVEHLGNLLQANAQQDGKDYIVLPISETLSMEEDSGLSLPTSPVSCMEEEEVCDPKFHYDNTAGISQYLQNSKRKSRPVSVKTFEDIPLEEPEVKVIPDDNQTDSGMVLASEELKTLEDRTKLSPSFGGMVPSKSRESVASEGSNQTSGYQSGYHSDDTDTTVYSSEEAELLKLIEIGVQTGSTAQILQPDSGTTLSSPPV
Protocol: As the main target in this work is the design and synthesis of promising VEGFR-2 inhibitors, we subjected the synthesised compounds to in vitro VEGFR-2 inhibitory assay to assess the ability of these compounds to obstacle the kinase activity of VEGFR-2.
Was tested using a VEGFR-2 ELISA kit and was explained intensely in Supplementary data[47].

[2] = system: Caco-2; assay: In vitro anti-proliferative activity (MTT assay); assay type: cell-based, human; conditions: for IC50: Homo sapiens, Caco-2, mean of three replicates
Protocol: (§1) To assess the antiproliferative effects of the targeted candidates, an MTT assay[29–31] was performed against four cancer cell lines: lung carcinoma epithelial (A549), colon cancer (Caco-2), hepatocellular cancer (HepG2), and breast cancer (MDA-MB-231).
(§2) Anti-proliferative activities were assessed using the MTT assay[31]^,[46] and were explained intensely in Supplementary data. […]
(§3) a- Mammalian cell lines culture
(§4) Lung carcinoma epithelial (A549), colon cancer (Caco-2)cell lines were cultured on DMEM media, meanwhile hepatocellular cancer (HepG2), and breast cancer (MDA-MB-231) cell lines were cultured on RBMI media. The cultured media were supplement ed with 200 mM L-glutamine, 10.0% fetal bovine serum (Lonza), and 1.0% penicillin/streptomycin. Cells were seeded into 25.0 cm tissue culture flasks and incubated at 37 ◦C in a 5.0% CO2 incubator for 24 h or till confluency.
(§5) The safety profiles of the tested compounds were checked on one non-cancerous cell line (Vero) to […]
(§6) of 100.0 µl of 6×10^4 cell/ml cells was seeded in to each well of a 96-well plate and then the plates were incubated at 37 °C in a humidified 5.0% CO2 incubator for 24 h. At the end of incubation period, the exhausted medium was replaced with 100.0 µl of different concentrations of the designated treatment (prepared in RPMI medium starting from 1.0 mM). The inoculated plates were incubated at the same growth conditions for another 24 h. At the end of incubation, cellular viability was assessed using MTS assay kit (Promega) according to the manual instruction. c- In-vitro anticancer activity
(§7) Anticancer activities of the tested compounds against lung carcinoma epithelial (A549), colon cancer (Caco-2), hepatocellular cancer (HepG2), and breast cancer (MDA-MB-231) cell lines were quantified using MTS assay kit (Promega) as described by the Manufacturer. d- Selectivity index (SI)
(§8) The selectivity index values of the tested compounds on cancer cells were calculated as described by Koch et al., with slight modifications; SI=IC50nc/IC50cc, where IC50nc: the IC50 value of the tested compound on normal cells and IC 50cc: IC50 of the tested compound on cancer cell line . […]

[3] = In vitro anti-proliferative activity (MTT assay); assay type: cell-based, human; conditions: African green monkey (Vero) / human (Caco-2); IC50 on normal (Vero) cells / IC50 on Caco-2; read-out: Selectivity index Caco-2
Protocol: as §1, §2, §3, §4, §5, §6, §7, §8

[4] = system: HepG2; assay: In vitro anti-proliferative activity (MTT assay); assay type: cell-based, human; conditions: for IC50: Homo sapiens, HepG2, HepG-2, mean of three replicates; for Selectivity index HepG2: IC50 on normal (Vero) cells / IC50 on HepG2
Protocol: as §2, §3
(§9) Lung carcinoma epithelial (A549), colon cancer (Caco-2)cell lines were cultured on DMEM media, […]
(§10) RBMI media. The cultured media were supplement ed with 200 mM L-glutamine, 10.0% fetal bovine serum (Lonza), and 1.0% penicillin/streptomycin. Cells were seeded into 25.0 cm tissue culture flasks and incubated at 37 ◦C in a 5.0% CO2 incubator for 24 h or till confluency.
as §5, §6
(§11) Anticancer activities of the tested compounds against lung carcinoma epithelial (A549), colon cancer […]
(§12) quantified using MTS assay kit (Promega) as described by the Manufacturer. d- Selectivity index (SI)
as §8

[5] = system: MDA-MB-231; assay: In vitro anti-proliferative activity (MTT assay); assay type: cell-based, human; conditions: for IC50: Homo sapiens, MDA-MB-231, MDA-MB231, mean of three replicates; for Selectivity index MDA-MB231: IC50 on normal (Vero) cells / IC50 on MDA-MB231
Protocol: as §2, §3, §9, §10, §5, §6, §11, §12, §8

[6] = system: A549; assay: In vitro anti-proliferative activity (MTT assay); assay type: cell-based, human; conditions: for IC50: Homo sapiens, A549, mean of three replicates; for Selectivity index A549: IC50 on normal (Vero) cells / IC50 on A549
Protocol: as §2, §3, §9, §10, §5, §6, §11, §12, §8

[7] = Cytotoxicity against normal cells (safety assay); assay type: cell-based; conditions: African green monkey, Vero cells (non-cancerous cell line)
Protocol: The cytotoxic activities of the synthesised against normal cells were evaluated against the Vero cell line utilising an MTT assay.
The safety profiles were examined on Vero cells (non-cancerous cell line) and was explained intensely in Supplementary data[48]. […]
a- Mammalian cell lines culture […]
as §10, §5
of 100.0 µl of 6×10^4 cell/ml cells was seeded in to each well of a 96-well plate and then the plates were incubated at 37 °C in a humidified 5.0% CO2 incubator for 24 h. At the end of incubation period, the exhausted medium was replaced with 100.0 µl of different concentrations of the designated treatment (prepared in RPMI medium starting from 1.0 mM). The inoculated plates were incubated at the same growth conditions for another 24 h. At the end of incubation, cellular viability was assessed using MTS assay kit (Promega) according to the manual instruction. […]

[8] = system: Caco-2 cells; assay: Wound healing assay (migration assay); assay type: cell-based, human
Protocol: In this test, Caco-2 cells were allowed to grow then, a wound was formed on the cell layer. Next, the cells were incubated with the sub IC50 dose of compound 7. The results of wound healing were compared to the untreated cell line. Figure 4 illustrates the degree of wound healing caused by compound 7 compared to the control cells.
Was performed as the described protocol[50] and was explained intensely in Supplementary data. […]
as §3
Lung carcinoma epithelial (A549), colon cancer (Caco-2)cell lines were cultured on DMEM media, meanwhile hepatocellular cancer (HepG2), and breast cancer (MDA-MB-231) cell lines were cultured on RBMI media. […]
of 100.0 µl of 6×10^4 cell/ml cells was seeded in to each well of a 96-well plate and then the plates were incubated at 37 °C in a humidified 5.0% CO2 incubator for 24 h. […] At the end of incubation, cellular viability was assessed using MTS assay kit (Promega) according to the manual instruction. c- In-vitro anticancer activity
Anticancer activities of the tested compounds against lung carcinoma epithelial (A549), colon cancer (Caco-2), hepatocellular cancer (HepG2), and breast cancer (MDA-MB-231) cell lines were quantified using MTS assay kit (Promega) as described by the Manufacturer. d- Selectivity index (SI) […]

[9] = system: Caco-2 cells; assay: Flow cytometric cell cycle analysis; assay type: cell-based, human; conditions: Caco-2, 90 µM, 24 h
Source text: Employing the flowcytometry technique, the cell cycle pattern of the untrated Caco-2 cancer cells (Figure 6(A)) was compared with that of the treated cells with compound 7.

[10] = system: Bcl-xl; assay: RT-qPCR gene expression in Caco-2 cells; assay type: cell-based, human; conditions: Caco-2, 90 µM, 24 h
Protocol: (§13) RT-qPCR technique was applied to assess the expression levels of Bcl2, Bcl-xl, Survivin, and TGF in Caco-2 cells after treatment with compound 7 for 24 h. […] On the other hand, such a compound produced an upregulation effect of the TGF gene.
(§14) Bcl2, Bcl-xl, TGF and Survivin genes levels were evaluated as reported[51] and was explained intensely in Supplementary data. […]
(§15) f- Gene expression pattern alternation of cancer cell after treatment with compound 7.
(§16) The molecular anticancer mode of action of 7 was investigated by screening their ability to affect the gene expression levels of Bcl2, Bcl-xl, TGF and Survivin genes using specific forward and reverse primers and RTq-PCR technique (Table 1) in CaCo-2 cells (chosen as the most sensitive cancer cell line). After cellular treatment, CaCo-2 cell line was cultured into 12 well plates (6×10^3 cell/ml) for 24 h. with the sub -IC50 concentration of 7. After treatment, total RNA extraction was performed using RNA extraction kit (Qiagen, Germany). Then, 1 ug of the obtained RNA was used to synthesiz cDNA using cDNA synthesis kit (Promega Corp., Madison, WI) as recommended by the manufacturer . Simultaneously, GAPDH forward and reverse primers (Table 1) were used to amplify the house keeping gene as internal control for standardization of PCR products. The RTq -PCR was done using SYBR Green dye (QuantiTect SYBR Green PCR Kits) and Light Cycler fluorimeter (Bio-RAD S1000 Tm thermal cycler). The PCR cycling program was as follows: 95 °C for 2 min, followed by 40 cycles of 95 °C for 30s, 55 °C for 30 s, and 60 °C for 45s, and finally 60 °C for 5 min. […]

[11] = system: Survivin; assay: RT-qPCR gene expression in Caco-2 cells; assay type: cell-based, human; conditions: Caco-2, 90 µM, 24 h
Protocol: as §13, §14, §15, §16

[12] = system: Bcl2; assay: RT-qPCR gene expression in Caco-2 cells; assay type: cell-based, human; conditions: Caco-2, 90 µM, 24 h
Protocol: as §13, §14, §15, §16

[13] = system: TGF; assay: RT-qPCR gene expression in Caco-2 cells; assay type: cell-based, human; conditions: Caco-2, 90 µM, 24 h
Protocol: as §13, §14, §15, §16

COc1ccc2[nH]c(=O)c(/C=C3\SC(=O)N(CC(=O)Nc4ccccc4C)C3=O)cc2c1 [Compound 9, (Z)-2–(5-((6-Methoxy-2-oxo-1,2-dihydroquinolin-3-yl)methylene)-2,4-dioxothiazolidin-3-yl)-N-(o-tolyl)acetamide]
times as active as sorafenib ([1]; VEGFR-2 inhibition): 0.54 times
HillSlope (best-fit value), VEGFR-2 inhibition [1]: -0.5262
LogIC50 (best-fit value), VEGFR-2 inhibition [1]: 1.994 Log (nM)
IC50 [1]: 0.0985 µM
IC50 [2]: 167 ± 4.2 µM
selectivity ratio [3]: 1.17
IC50 [4]: 145 ± 3.5 µM
Selectivity index HepG2 [4]: 1.35
IC50 [5]: 188 ± 7.01 µM
Selectivity index MDA-MB231 [5]: 1.04
IC50 [6]: 51 ± 4.2 µM
Selectivity index A549 [6]: 3.84
IC50 at 24 h [7]: 196 ± 2.8 µM

COc1ccc(NC(=O)CN2C(=O)S/C(=C\c3cc4cc(OC)ccc4[nH]c3=O)C2=O)cc1 [Compound 8, (Z)-2–(5-((6-Methoxy-2-oxo-1,2-dihydroquinolin-3-yl)methylene)-2,4-dioxothiazolidin-3-yl)-N-(4-methoxyphenyl)acetamide]
HillSlope (best-fit value), VEGFR-2 inhibition [1]: -0.3463
LogIC50 (best-fit value), VEGFR-2 inhibition [1]: 2.272 Log (nM)
IC50 [1]: 0.187 µM
IC50 [2]: 190 ± 9.11 µM
selectivity ratio [3]: 0.79
IC50 [4]: 134 ± 1.41 µM
Selectivity index HepG2 [4]: 1.12
IC50 [5]: 130 ± 5.6 µM
Selectivity index MDA-MB231 [5]: 1.15
IC50 [6]: 196 ± 70 µM
Selectivity index A549 [6]: 0.77
IC50 at 24 h [7]: 150 ± 14.1 µM

COc1ccc(NC(=O)CN2C(=O)S/C(=C3\C(=O)Nc4ccccc43)C2=O)cc1 [Compound 14]
IC50 [1]: 0.0859 µM
times as active as doxorubicin ([2]; Caco-2 cells): 1.44 times
IC50 [2]: 5.7 ± 0.07 µM
IC50 [4]: 149 ± 7.01 µM
IC50 [5]: 9 ± 0.51 µM
IC50 [6]: 54 ± 1.4 µM
IC50 at 24 h [7]: 30 ± 1.35 µM

COc1ccc2[nH]c(=O)c(/C=C3\SC(=O)N(CC(=O)Nc4ccccc4)C3=O)cc2c1 [Compound 7, (Z)-2–(5-((6-Methoxy-2-oxo-1,2-dihydroquinolin-3-yl)methylene)-2,4-dioxothiazolidin-3-yl)-N-phenylacetamide]
diameter of the wound, treated cells (Figure 4A) ([8]; Caco-2, 90 µM, time not stated): 0.3058 mm
effect on wound healing ([8]; Caco-2, sub IC50 dose (90 µM)): prevent wound healing
cell cycle arrest [9]: cellular arrest in sub G0 (Apoptotic phase)
cell population in S phase ([9]; untreated 24.7%): 13.1%
cell population in G0/G1 phase ([9]; untreated 51.7%): 46.4%
HillSlope (best-fit value), VEGFR-2 inhibition [1]: -0.4960
LogIC50 (best-fit value), VEGFR-2 inhibition [1]: 2.138 Log (nM)
IC50 [2]: 93.5 ± 0.71 µM
selectivity ratio [3]: 4.71
IC50 [4]: 150 ± 7.07 µM
Selectivity index HepG2 [4]: 2.93
IC50 [5]: 122 ± 7.01 µM
Selectivity index MDA-MB231 [5]: 3.59
IC50 [6]: 159 ± 14 µM
Selectivity index A549 [6]: 2.77
IC50 at 24 h [7]: 440 ± 14.1 µM
Relative expression of Bcl-xl gene [10]: down-regulating
Relative expression of Survivin gene [11]: down-regulating
Relative expression of Bcl2 gene [12]: down-regulating
Relative expression of TGF gene [13]: upregulation

COc1cccc2c1C(=O)c1c(O)c3c(c(O)c1C2=O)C[C@@](O)(C(=O)CO)C[C@@H]3O[C@H]1C[C@H](N)[C@H](O)[C@H](C)O1 [Doxorubicin, reference compound]
IC50 [2]: 8.2 ± 0.21 µM
selectivity ratio [3]: 3.05
IC50 [4]: 2.8 ± 0.07 µM
Selectivity index HepG2 [4]: 8.93
IC50 [5]: 9 ± 0.77 µM
Selectivity index MDA-MB231 [5]: 2.78
IC50 [6]: 7 ± 0.22 µM
Selectivity index A549 [6]: 3.57
IC50 at 24 h [7]: 25 ± 1.41 µM
